Values of other authors, collected in patent US20050113271A1, “Automatic dishwashing detergent with improved glass anti-corrosion properties II” (priority 2002, published 2005).
Read-outs that look alike come from different tables or passages of the source.

**Q.** For `[Cl-].[Cl-].[Zn+2]` [Zinc chloride], which Solubility (25° C.) is on record?
**A.** 4320 g/l (25° C.)

**Q.** With Zinc hydroxycarbonate as the molecule, how does the “Solubility (in words)” value (20° C.) read?
**A.** Virtually insoluble (20° C.)

**Q.** Which Solubility (20° C.) does the source give for Zinc acetylacetonate here?
**A.** 4 g/l (20° C.)
